Measured values reported in paper PMC9698340, “Discovery and SAR Study of Quinoxaline–Arylfuran Derivatives as a New Class of Antitumor Agents” (Pharmaceutics, 2022).

Tests used:
[1] = system: five melanoma cell lines, including mutant B-RAFV600E and wild-type; parameters: method as in PMID 30691132; conditions: range over cell lines; read-out: IC50 values against five melanoma cell lines; cited from earlier work
HeLa cells = assay: CCK-8 antiproliferation assay, HeLa; assay type: cell-based; conditions: Homo sapiens, 48 h; for inhibition at 20 µM: CCK-8, mean ± SD, read-out: Inhibition Rate (%) at 20 μM, HeLa
Experimental: (§1) Human lung carcinoma cell lines A549, human cervical cancer cell lines HeLa, human prostate cancer cell lines PC3, human colorectal carcinoma cell lines HCT116, and human liver cells L02 were purchased from the Chinese Academy of Sciences Shanghai Cell Bank (Shanghai, China). HeLa, A549, PC3, HCT116, and L02 cells were cultured in DMEM Dulbecco’s Modified Eagle Medium (DMEM; Gibco Inc., Gaithersburg, MD, USA). All cultures were provided with 10% fetal bovine serum (FBS; YHSM, Beijing, China), 100 IU/mL penicillin, and 100 μg/mL streptomycin, and cells were incubated at 37 °C in an atmosphere of 5% CO2.
(§2) Cell viability was determined using a CCK-8 kit (Apexbio, Houston, TX, USA). […] Subsequently, absorbance was assessed at 450 nm. Three duplicates were set in each group.
(§3) All synthesized quinoxalines compounds were tested for in vitro cytotoxicity against four cancer cell lines (HeLa, PC3, A549, and HCT116). The inhibitory effects of these compounds were evaluated using the CCK-8 assay after treatment with 20 μM of each compound. […] The species of phenyl substituents have a significant effect on the activity. […] By comparison, hydrophobic substitution at the phenyl ring gave derivatives with relatively low potency (QW7–8). In addition, large substituents on the phenyl ring exerted an unfavorable influence on the potency of the compounds (QW8 and QW16).

PC3 cells = assay: CCK-8 antiproliferation assay, PC3; assay type: cell-based; conditions: Homo sapiens, PC-3, 48 h; for inhibition at 20 µM: CCK-8, mean ± SD, read-out: Inhibition Rate (%) at 20 μM, PC3
Experimental: as §1, §2, §3

A549 cells = assay: CCK-8 antiproliferation assay, A549; assay type: cell-based; conditions: Homo sapiens, 48 h; for inhibition at 20 µM: CCK-8, mean ± SD, read-out: Inhibition Rate (%) at 20 μM, A549
Experimental: as §1, §2, §3

HCT116 cells = assay: CCK-8 antiproliferation assay, HCT116; assay type: cell-based; conditions: Homo sapiens, HCT-116, 48 h; for inhibition at 20 µM: CCK-8, mean ± SD, read-out: Inhibition Rate (%) at 20 μM, HCT116
Experimental: as §1, §2, §3

L02 cells = assay: CCK-8 cytotoxicity against normal hepatocytes L02; assay type: cell-based; conditions: Homo sapiens, 48 h, read-out: IC50 ± SD, L02 (human normal hepatocytes)
Experimental: as §1, §2
To further evaluate the anticancer effect of QW12, we evaluated its cytotoxicity against four human cancer cell lines: HeLa (Human cervical tumor), PC3 (Human prostate tumor), HCT116 (Human colorectal carcinomas), and A549 (Human lung carcinoma). […] Furthermore, the IC50 values of QW12 against PC3 and HCT116 were similar to those of nifuroxazide.

Row | IC50 (HeLa cells; HeLa, CCK-8, read-out: IC50 ± SD, HeLa) [µM] | IC50 (PC3 cells; CCK-8, read-out: IC50 ± SD, PC3) [µM] | IC50 (A549 cells; CCK-8, read-out: IC50 ± SD, A549) [µM] | IC50 (HCT116 cells; CCK-8, read-out: IC50 ± SD, HCT116) [µM] | Structure (SMILES) | IC50 [1] [nM] | inhibition at 20 µM (HeLa cells) [%] | inhibition at 20 µM (PC3 cells) [%] | inhibition at 20 µM (A549 cells) [%] | inhibition at 20 µM (HCT116 cells) [%] | IC50 (L02 cells) [µM]
1 |  |  |  |  | N=C(N)[Se]Cc1nc2ccccc2nc1C[Se]C(=N)N [Compound 5] | 800 to 3800 |  |  |  |  | 
2 |  |  |  |  | COc1cc(-c2cc(OC)c3ccccc3c2OC)c(OC)cc1-c1ccc(/C=N/NC(=O)c2ccccn2)o1 [QW22, (E)-N’-((5-(4-(1,4-dimethoxynaphthalen-2-yl)-2,5-dimethoxyphenyl)furan-2-yl)methylene)picolinohydrazide] |  | 5.47 ± 0.37 | 0.33 ± 0.06 | 37.5 ± 0.48 | 6.58 ± 0.23 | 
3 |  |  |  |  | COc1cc(-c2ccc(/C=N/NC(=O)c3ccccn3)o2)c(OC)cc1-c1cnc2ccccc2n1 [QW6, (E)-N’-((5-(2,5-dimethoxy-4-(quinoxalin-2-yl)phenyl)furan-2-yl)methylene)picolinohydrazide] |  | 0.53 ± 0.12 | 0.1 ± 0.13 | 1.66 ± 0.61 | 16.5 ± 0.25 | 
4 |  |  |  |  | COc1cc(-c2cc(OC)c3ccccc3c2OC)c(OC)cc1-c1ccc(/C=N/NC(=O)c2ccc(-c3ccccc3)cc2)o1 [QW24, (E)-N’-((5-(4-(1,4-dimethoxynaphthalen-2-yl)-2,5-dimethoxyphenyl)furan-2-yl)methylene)-[1,1’-biphenyl]-4-carbohydrazide] |  | 4.96 ± 0.61 | 2.4 ± 0.07 | 6 ± 0.1 | 4.39 ± 0.52 | 
5 |  |  |  |  | COc1cc(-c2cc(OC)c3ccccc3c2OC)c(OC)cc1-c1ccc(/C=N/NC(=O)c2ccncc2)o1 [QW21, (E)-N’-((5-(4-(1,4-dimethoxynaphthalen-2-yl)-2,5-dimethoxyphenyl)furan-2-yl)methylene)isonicotinohydrazide] |  | 0.36 ± 0.6 | 0.12 ± 0.2 | 0.68 ± 0.36 | 4.46 ± 0.24 | 
6 |  |  |  |  | COc1cc(-c2ccc(/C=N/NC(=O)c3ccc(-c4ccccc4)cc3)o2)c(OC)cc1-c1cnc2ccccc2n1 [QW8, (E)-N’-((5-(2,5-dimethoxy-4-(quinoxalin-2-yl)phenyl)furan-2-yl)methylene)-[1,1’-biphenyl]-4-carbohydrazide] |  | 3.46 ± 0.17 | 11.8 ± 0.56 | 5.8 ± 0.02 | 20.92 ± 0.05 | 
7 | 16.65 ± 0.08 | 9.83 ± 0.05 | 8.06 ± 0.03 | 10.46 ± 0.04 | O=C(N/N=C/c1ccc([N+](=O)[O-])o1)c1ccc(O)cc1 [Nifuroxazide, nifuroxazide, reference compound] |  | 80.38 ± 0.17 | 75.29 ± 0.33 | 91.23 ± 0.04 | 85.31 ± 0.24 | 25.3 ± 0.31
8 |  |  |  |  | COc1cc(-c2ccc(/C=N/NC(=O)c3cccnc3)o2)c(OC)cc1-c1ccc2nccnc2c1 [QW11, (E)-N’-((5-(2,5-dimethoxy-4-(quinoxalin-6-yl)phenyl)furan-2-yl)methylene)nicotinohydrazide] |  | 45.5 ± 0.61 | 29.35 ± 0.18 | 17.27 ± 0.03 | 39.9 ± 0.68 | 
9 |  |  |  |  | COc1cc(-c2ccc(/C=N/NC(=O)c3cccnc3)o2)c(OC)cc1-c1cnc2ccccc2n1 [QW3, (E)-N’-((5-(2,5-dimethoxy-4-(quinoxalin-2-yl)phenyl)furan-2-yl)methylene)nicotinohydrazide] |  | 38.81 ± 0.3 | 32.6 ± 0.65 | 11.63 ± 0.03 | 33.8 ± 0.41 | 
10 |  |  |  |  | COc1cc(-c2ccc(/C=N/NC(=O)c3ccncc3)o2)c(OC)cc1-c1ccc2nccnc2c1 [QW13, (E)-N’-((5-(2,5-dimethoxy-4-(quinoxalin-6-yl)phenyl)furan-2-yl)methylene)isonicotinohydrazide] |  | 37.71 ± 0.12 | 18.5 ± 0.3 | 3.96 ± 0.59 | 23.2 ± 0.27 | 
11 |  |  |  |  | COc1cc(-c2ccc(/C=N/NC(=O)c3ccc(F)cc3)o2)c(OC)cc1-c1cnc2ccccc2n1 [QW1, (E)-N’-((5-(2,5-dimethoxy-4-(quinoxalin-2-yl)phenyl)furan-2-yl)methylene)-4-fluorobenzohydrazide] |  | 5.14 ± 0.13 | 5.13 ± 0.59 | 7.47 ± 0.52 | 15.33 ± 0.14 | 
12 |  |  |  |  | COc1cc(-c2ccc(/C=N/NC(=O)c3ccc(-c4ccccc4)cc3)o2)c(OC)cc1-c1ccc2nccnc2c1 [QW16, (E)-N’-((5-(2,5-dimethoxy-4-(quinoxalin-6-yl)phenyl)furan-2-yl)methylene)-[1,1’-biphenyl]-4-carbohydrazide] |  | 10.93 ± 0.04 | 9.37 ± 0.09 | 4.12 ± 0.33 | 41.48 ± 0.05 | 
13 |  |  |  |  | COc1cc(-c2ccc(/C=N/NC(=O)c3ccncc3)o2)c(OC)cc1-c1cnc2ccccc2n1 [QW5, (E)-N’-((5-(2,5-dimethoxy-4-(quinoxalin-2-yl)phenyl)furan-2-yl)methylene)isonicotinohydrazide] |  | 31.13 ± 0.23 | 26 ± 0.37 | 18.52 ± 0.18 | 30.6 ± 0.51 | 
14 |  |  |  |  | COc1cc(-c2ccc(/C=N/NC(=O)c3ccccc3)o2)c(OC)cc1-c1ccc2nccnc2c1 [QW10, (E)-N’-((5-(2,5-dimethoxy-4-(quinoxalin-6-yl)phenyl)furan-2-yl)methylene)benzohydrazide] |  | 4.3 ± 0.45 | 8.09 ± 0.13 | 8.82 ± 0.08 | 10.9 ± 0.46 | 
15 |  |  |  |  | COc1cc(-c2ccc(/C=N/NC(=O)c3ccccn3)o2)c(OC)cc1-c1ccc2nccnc2c1 [QW14, (E)-N’-((5-(2,5-dimethoxy-4-(quinoxalin-6-yl)phenyl)furan-2-yl)methylene)picolinohydrazide] |  | 8.67 ± 0.24 | 12.9 ± 0.31 | 5.46 ± 0.7 | 30.5 ± 0.55 | 
